US7238716B2, “Alkanoic acid derivatives process for their production and use thereof” (Takeda Pharmaceuticals Company Limited, priority 2000, dated 2007)
Like-named read-outs stand apart in the source and are kept apart here.

Key:
KKAY mice = experiment: Hypoglycemic and hypolipidemic actions in mice (Test Example 1); format: in vivo; conditions: Mus musculus, po, 96 h, four days; for inhibition in vivo at 0.005 %: 0.005% in powdery diet; for inhibition in vivo at 0.01 %: 0.01% in powdery diet
In short: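 Compounds given in powdered diet at 0.01% or 0.005% ad libitum for four days to KKAY mice (11–12 weeks old, 5 per group). Plasma glucose and triglyceride measured enzymatically from orbital blood; values are percent reduction relative to untreated group taken as 100%.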

KKA^y mice = experiment: Total cholesterol lowering action and plasma anti-arteriosclerosis index enhancing action in mice (Test Example 2); format: in vivo; conditions: Mus musculus, po, 96 h, four days; for change in vivo at 0.005 % / change in vivo at 0.01 %: percent increase of [(HDL cholesterol/total cholesterol)×100] vs non-administration group; for change in vivo at 0.005 % / inhibition in vivo at 0.005 %: 0.005% in powdery diet; for inhibition in vivo at 0.005 % / inhibition in vivo at 0.01 %: percent reduction of plasma total cholesterol level vs non-administration group; for change in vivo at 0.01 % / inhibition in vivo at 0.01 %: 0.01% in powdery diet
Description: Test compounds were mixed in a powdery diet (CE-2, Japan Clea) the concentration of 0.01% (compounds of Examples 7, 26, 29 and 32) or 0.005% (compounds of Examples 1, 11, 15, 18, 24, 36, 37, 41, 48, 50, 51, 52, 58, 62, 79, 88, 91, 92, 93, 97, 107, 110, 129 and 130), and freely given to KKA^y mice (11 to 12 weeks old, 5 mice per group), a model of type-2 diabetes mellitus, for four days. During this period, water was given freely. Blood was sampled from orbital venous plexus and components were analyzed using the plasma separated from the blood. Total cholesterol levels were determined by using L type Wako Cholesterol (Wako Pure Chemical Industries, Ltd). Precipitation reagent for HDL cholesterol (Wako Pure Chemical Industries, Ltd.) was added to a part of the plasma to precipitate non-HDL lipoprotein, and cholesterol (HDL cholesterol) in the resulting supernatant was determined. The plasma anti-arteriosclerosis index [(HDL cholesterol/total cholesterol)×100] was calculated by using these cholesterol levels.
In the Table, “Total cholesterol lowering action (%)” represents the percent reduction (%) of total cholesterol level in the test compound administration group, when the total cholesterol level in the test compound non-administration group is taken as 100%. “Plasma anti-arteriosclerosis index-enhancing action (%)” represents the percent increase (%) of plasma anti-arteriosclerosis index in the test compound administration group, when the plasma anti-arteriosclerosis index in the test compound non-administration group is taken as 100%.

[1] = percent reduction of plasma glucose level vs non-administration group, read-out: hypoglycemic action (%)
[2] = percent reduction of plasma triglyceride level vs non-administration group, read-out: hypolipidemic action (%)

Compound	melting point	inhibition in vivo at 0.005 % (KKAY mice; [1]) [%]	inhibition in vivo at 0.005 % (KKAY mice; [2]) [%]	change in vivo at 0.005 % (KKA^y mice) [%]	inhibition in vivo at 0.005 % (KKA^y mice) [%]	inhibition in vivo at 0.01 % (KKAY mice; [1]) [%]	inhibition in vivo at 0.01 % (KKAY mice; [2]) [%]	change in vivo at 0.01 % (KKA^y mice) [%]	inhibition in vivo at 0.01 % (KKA^y mice) [%]
Cc1oc(-c2ccccc2)nc1COc1ccc(COc2cccnc2CC(=O)O)cc1 [Example 37, 2-[3-[4-[(5-methyl-2-phenyl-4-oxazolyl)methoxy]benzyloxy]-2-pyridyl]acetic acid]	115 to 116 °C (dec.)	50	61	19	15	–	–	–	–
CCOc1ccc(OCc2ccc(OCc3nc(-c4ccccc4)oc3C)cc2)c(CC(=O)O)c1 [Example 26, 2-[5-ethoxy-2-[4-[(5-methyl-2-phenyl-4-oxazolyl)methoxy]benzyloxy]phenyl]acetic acid]	122 to 123 °C	–	–	–	–	53	88	16	20
Cc1ccc(CC(=O)O)c(OCc2ccc(OCc3nc(-c4ccccc4)oc3C)cc2)n1 [Example 110, 2-[6-methyl-2-[4-[(5-methyl-2-phenyl-4-oxazolyl)methoxy]benzyloxy]-3-pyridyl]acetic acid]	138 to 139 °C	51	74	24	21	–	–	–	–
O=C(O)Cc1ccccc1OCc1ccc(OCc2csc(-c3ccccc3)n2)cc1 [Example 51, 2-[2-[4-[(2-phenyl-4-thiazolyl)methoxy]benzyloxy]phenyl]acetic acid]	115 to 116 °C	55	79	22	24	–	–	–	–
CCOc1ccc(OCc2ccc(OCc3nc(-c4ccccc4)oc3C)cc2)cc1CCC(=O)O [Example 7, 3-[2-ethoxy-5-[4-[(5-methyl-2-phenyl-4-oxazolyl)methoxy]benzyloxy]phenyl]propionic acid]	129 to 130 °C	–	–	–	–	48	62	15	17
Cc1oc(-c2ccco2)nc1COc1ccc(COc2ccccc2CC(=O)O)cc1 [Example 50, 2-[2-[4-[[2-(2-furyl)-5-methyl-4-oxazolyl]methoxy]benzyloxy]phenyl]acetic acid]	167 to 168 °C	54	77	15	20	–	–	–	–
Cc1oc(-c2ccccc2)nc1COc1cc(COc2ccccc2CC(=O)O)on1 [Example 79, 2-[2-[3-(5-methyl-2-phenyl-4-oxazolylmethoxy)-5-isoxazoly]methoxylphenyl]acetic acid]	152 to 153 °C	54	96	42	39	–	–	–	–
Cc1oc(-c2ccccc2)nc1COc1cccc(COc2cccc(CC(=O)O)c2)c1 [Example 32, 2-[[3-[3-(5-methyl-2-phenyl-4-oxazolyl)methoxy]benzyloxy]phenyl]acetic acid]	101 to 102 °C	–	–	–	–	40	53	10	2
Cc1sc(-c2ccccc2)nc1COc1ccc(COc2ncccc2CC(=O)O)cc1 [Example 93, 2-[2-[4-[(5-methyl-2-phenyl-4-thiazolyl)methoxy]benzyloxy]-3-pyridyl]acetic acid]	128 to 129 °C	45	53	17	16	–	–	–	–
Cc1oc(-c2ccco2)nc1COc1ccc(COc2ncccc2CC(=O)O)cc1 [Example 92, 2-[2-[4-[[2-(2-furyl)-5-methyl-4-oxazolyl]methoxy]benzyloxy]-3-pyridyl]acetic acid]	151 to 152 °C	58	83	23	15	–	–	–	–
Cc1sc(-c2ccccc2)nc1COc1ccc(COc2ccccc2CC(=O)O)cc1 [Example 52, 2-[2-[4-[(5-methyl-2-phenyl-4-thiazolyl)methoxy]benzyloxy]phenyl]acetic acid]	122 to 123 °C	56	61	15	26	–	–	–	–
COc1ccc(OCc2ccc(OCc3nc(-c4ccccc4)oc3C)cc2)c(CC(=O)O)c1 [Example 24, 2-[5-methoxy-2-[4-[(5-methyl-2-phenyl-4-oxazolyl)methoxy]benzyloxy]phenyl]acetic acid]	134 to 136 °C	49	67	17	10	–	–	–	–
CCOc1ccc(OCc2ccc(OCc3nc(-c4ccccc4)oc3C)cc2)c(CCC(=O)O)c1 [Example 29, 3-[5-ethoxy-2-[4-[(5-methyl-2-phenyl-4-oxazolyl)methoxy]benzyloxy]phenyl]propionic acid]	115 to 116 °C	–	–	–	–	58	67	20	21
Cc1oc(-c2ccccc2)nc1COc1ccc(COc2ncccc2CC(=O)O)cn1 [Example 88, 2-[2-[[6-[(5-methyl-2-phenyl-4-oxazolyl)methoxy]-3-pyridyl]methoxy]-3-pyridyl]acetic acid]	147 to 148 °C	47	90	22	10	–	–	–	–
Cc1oc(-c2ccccc2)nc1COc1ccc(COc2ncccc2CC(=O)O)cc1 [Example 36, 2-[2-[4-[(5-methyl-2-phenyl-4-oxazolyl)methoxy]benzyloxy]-3-pyridyl]acetic acid]	144 to 145 °C	55	71	34	19	–	–	–	–
Cc1oc(-c2ccccc2)nc1COc1ccc(COc2cccc(CC(=O)O)c2)cc1 [Example 1, 2-[3-[4-[(5-methyl-2-phenyl-4-oxazolyl)methoxy]benzyloxy]phenyl]acetic acid]	159 to 160 °C	21	33	11	7	–	–	–	–
Cc1oc(-c2ccccc2)nc1CCc1ccc(COc2ccccc2CC(=O)O)cc1 [Example 97, 2-[2-[4-[2-(5-methyl-2-phenyl-4-oxazolyl)ethyl]benzyloxy]phenyl]acetic acid]	130 to 131 °C	34	83	27	27	–	–	–	–
Cc1oc(-c2ccccc2)nc1COc1ccc(COc2ccccc2CC(=O)O)cn1 [Example 41, 2-[2-[[6-[(5-methyl-2-phenyl-4-oxazolyl)methoxy]-3-pyridyl]methoxy]phenyl]acetic acid]	123 to 125 °C	48	93	28	25	–	–	–	–
